Experimental findings from US12544391B2, “CD73 inhibitors” (ORIC Pharmaceuticals, Inc., priority 2019, dated 2026) are described below.

pIC50: −log10 of the molar value. Where only a bound is given, the exact number is not on record here.

This test concerns the target T1, CD73 (Homo sapiens, UniProt P21589).
T1 sequence (P21589 27-549): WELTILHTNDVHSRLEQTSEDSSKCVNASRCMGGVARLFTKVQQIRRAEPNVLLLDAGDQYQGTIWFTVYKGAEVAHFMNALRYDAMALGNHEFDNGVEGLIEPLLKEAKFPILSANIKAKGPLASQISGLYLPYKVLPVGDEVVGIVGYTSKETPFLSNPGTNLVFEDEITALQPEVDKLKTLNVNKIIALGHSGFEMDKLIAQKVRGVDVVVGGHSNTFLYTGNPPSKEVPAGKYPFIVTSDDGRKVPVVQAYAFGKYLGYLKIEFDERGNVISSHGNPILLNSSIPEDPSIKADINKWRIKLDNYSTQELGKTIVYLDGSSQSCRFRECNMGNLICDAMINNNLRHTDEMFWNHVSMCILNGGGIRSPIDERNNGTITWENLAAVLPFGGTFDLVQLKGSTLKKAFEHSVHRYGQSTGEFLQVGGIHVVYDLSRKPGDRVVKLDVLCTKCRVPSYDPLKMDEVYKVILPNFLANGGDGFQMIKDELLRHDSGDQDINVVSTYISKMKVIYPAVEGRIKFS
As to the kind of experiment: CD73 biochemical assay, Malachite Green detection of AMP hydrolysis. The conditions noted are these: CD73 320 pM, AMP 15 μM, Malachite Green readout. As to the method:
Assay Reaction Conditions
• Assay Volume: 70 μl • Reaction Volume: 50 μl • CD73: 0.3208 nM • AMP: 15 μM • Assay Buffer: 2 5 mM Tris-HCL, pH 7.4, 0.01% Brij-35, 0.01% BSA, 5 mM MgCl2 Assay Procedure:
A clear 384 well plate was used in this assay.
Made dose titration of testing compounds in assay buffer, 10 points ½ log titrations in duplicates starting at 100 μM. Total volume for each well was 25 μl, with CD73 then added to each well for a final concentration of 320 pM. The solution was then incubated at RT for 15 min. 25 μl of AMP was added to each well for a final concentration of 15 μM, and then incubated at rt for 10 min. 10 μl of Malachite Green Reagent A was then added and allowed to incubate at rt for 10 min. 10 μl of Malachite Green Reagent B was then added and allowed to incubate at rt for 45 min. The absorbance for each sample was read on an Envision plate reader using excitation filter: Cy5 […].
The ability of the compounds disclosed herein to inhibit CD73 activity was quantified and the respective IC50 values were determined. Table 2 provides the biochemical IC50 values of compounds disclosed herein.
A word on the pIC50: it is −log10 of the IC50, conventionally taken in molar units. A higher pIC50 goes with a low IC50. `C[C@](CO)(OC[C@H]1O[C@@H](c2ccc3c(NC4CCCC4)nc(Cl)nn23)[C@H](O)[C@@H]1O)P(=O)(O)O` [Example 33, ((S)-2-(((2R,3S,4R,5S)-5-(2-chloro-4-(cyclopentylamino)pyrrolo[2,1-f][1,2,4]triazin-7-yl)-3,4-dihydroxytetrahydrofuran-2-yl)methoxy)-1-hydroxypropan-2-yl)phosphonic acid] gave a pIC50 of 7.00 to 9.00. For `C[C@@](CO)(OC[C@H]1O[C@@H](c2ccc3c(NC4CCCC4)nc(Cl)nn23)[C@H](O)[C@@H]1O)P(=O)(O)O` [Example 34, ((R)-2-(((2R,3S,4R,5S)-5-(2-chloro-4-(cyclopentylamino)pyrrolo[2,1-f][1,2,4]triazin-7-yl)-3,4-dihydroxytetrahydrofuran-2-yl)methoxy)-1-hydroxypropan-2-yl)phosphonic acid] the value was 9.00 to 9.30. For `O=P(O)(O)[C@](COCc1nn[nH]n1)(COCC1CC1)OC[C@H]1O[C@@H](c2ccc3c(NC4CCCC4)nc(Cl)nn23)[C@H](O)[C@@H]1O` [Example 35, ((S)-1-((2H-tetrazol-5-yl)methoxy)-2-(((2R,3S,4R,5S)-5-(2-chloro-4-(cyclopentylamino)pyrrolo[2,1-f][1,2,4]triazin-7-yl)-3,4-dihydroxytetrahydrofuran-2-yl)methoxy)-3-(cyclopropylmethoxy)propan-2-yl)phosphonic acid] the value was at least 9.30. For the compound `C[C@@]1(c2ccc3c(NC4CCCC4)nc(Cl)nn23)O[C@H](CO[C@@](CO)(COCc2nn[nH]n2)P(=O)(O)O)[C@@H](O)[C@H]1O` [Example 36, ((R)-1-((2H-tetrazol-5-yl)methoxy)-2-(((2R,3S,4R,5S)-5-(2-chloro-4-(cyclopentylamino)pyrrolo[2,1-f][1,2,4]triazin-7-yl)-3,4-dihydroxy-5-methyltetrahydrofuran-2-yl)methoxy)-3-hydroxypropan-2-yl)phosphonic acid], the pIC50 was 6.00 to 7.00. As for `C[C@@]1(c2ccc3c(NC4CCCC4)nc(Cl)nn23)O[C@H](CO[C@](CO)(COCc2nn[nH]n2)P(=O)(O)O)[C@@H](O)[C@H]1O` [Example 37, ((S)-1-((2H-tetrazol-5-yl)methoxy)-2-(((2R,3S,4R,5S)-5-(2-chloro-4-(cyclopentylamino)pyrrolo[2,1-f][1,2,4]triazin-7-yl)-3,4-dihydroxy-5-methyltetrahydrofuran-2-yl)methoxy)-3-hydroxypropan-2-yl)phosphonic acid], the figure is 6.00 to 7.00; as for `O=P(O)(O)C(CO)(COCc1nnn[nH]1)OC[C@H]1O[C@@H](c2cnn3c(NC4CCCC4)cc(Cl)nc23)[C@H](O)[C@@H]1O` (stereo partly drawn) [Example 38], at least 9.30; as for `O=P(O)(O)C(CO)(COCc1nnn[nH]1)OC[C@H]1O[C@@H](c2ccc3c(NCC4CCC4)nc(Cl)nn23)[C@H](O)[C@@H]1O` (stereo partly drawn) [Example 39, (1-((1H-tetrazol-5-yl)methoxy)-2-(((2R,3S,4R,5S)-5-(2-chloro-4-((cyclobutylmethyl)amino)pyrrolo[2,1-f][1,2,4]triazin-7-yl)-3,4-dihydroxytetrahydrofuran-2-yl)methoxy)-3-hydroxypropan-2-yl)phosphonic acid], at least 9.30. As for `O=P(O)(O)[C@](CO)(COCc1nn[nH]n1)OC[C@H]1O[C@@H](c2ccc3c(N[C@@H]4CCc5ccccc54)nc(Cl)nn23)[C@H](O)[C@@H]1O` [Example 40, ((R)-1-((2H-tetrazol-5-yl)methoxy)-2-(((2R,3S,4R,5S)-5-(2-chloro-4-(((R)-2,3-dihydro-1H-inden-l-yl)amino)pyrrolo[2,1-f][1,2,4]triazin-7-yl)-3,4-dihydroxytetrahydrofuran-2-yl)methoxy)-3-hydroxypropan-2-yl)phosphonic acid], the figure is at least 9.30; as for `O=P(O)(O)[C@@](CO)(COCc1nn[nH]n1)OC[C@H]1O[C@@H](c2ccc3c(N[C@@H]4CCc5ccccc54)nc(Cl)nn23)[C@H](O)[C@@H]1O` [Example 41, ((S)-1-((2H-tetrazol-5-yl)methoxy)-2-(((2R,3S,4R,5S)-5-(2-chloro-4-(((R)-2,3-dihydro-1H-inden-l-yl)amino)pyrrolo[2,1-f][1,2,4]triazin-7-yl)-3,4-dihydroxytetrahydrofuran-2-yl)methoxy)-3-hydroxypropan-2-yl)phosphonic acid], at least 9.30; as for `COC[C@@](OC[C@H]1O[C@@H](c2ccc3c(NC4CCCC4)nc(Cl)nn23)[C@H](O)[C@@H]1O)(C(=O)O)P(=O)(O)O` [Example 42, (S)-2-(((2R,3 S,4R,5S)-5-(2-chloro-4-(cyclopentylamino)pyrrolo[2,1-f][1,2,4]triazin-7-yl)-3,4-dihydroxytetrahydrofuran-2-yl)methoxy)-3-methoxy-2-phosphonopropanoic acid], at least 9.30.

`O=P(O)(O)C(CO)(COCc1nnn[nH]1)OC[C@H]1O[C@H](c2cnn3c(NC4CCCC4)cc(Cl)nc23)[C@H](O)[C@@H]1O` (stereo partly drawn) [Example 43, (1-((1H-tetrazol-5-yl)methoxy)-2-(((2R,3S,4R,5R)-5-(5-chloro-7-(cyclopentylamino)pyrazolo[1,5-a]pyrimidin-3-yl)-3,4-dihydroxytetrahydrofuran-2-yl)methoxy)-3-hydroxypropan-2-yl)phosphonic acid] showed a pIC50 of 7.00 to 9.00. As for `O=c1[nH]c(COC[C@@](CO)(OC[C@H]2O[C@@H](c3ccc4c(NCC5CC5)nc(Cl)nn34)[C@H](O)[C@@H]2O)P(=O)(O)O)no1` [Example 44, ((S)-2-(((2R,3S,4R,5S)-5-(2-chloro-4-((cyclopropylmethyl)amino)pyrrolo[2,1-f][1,2,4]triazin-7-yl)-3,4-dihydroxytetrahydrofuran-2-yl)methoxy)-1-hydroxy-3-((5-oxo-4,5-dihydro-1,2,4-oxadiazol-3-yl)methoxy)propan-2-yl)phosphonic acid], the figure is at least 9.30. For `COC[C@](CC(=O)O)(OC[C@H]1O[C@@H](c2ccc3c(NC4CCCC4)nc(Cl)nn23)[C@H](O)[C@@H]1O)P(=O)(O)O` [Example 45, (R)-3-(((2R,3S,4R,5S)-5-(2-Chloro-4-(Cyclopentylamino)pyrrolo[2,1-f][1,2,4]triazin-7-yl)-3,4-dihydroxytetrahydrofuran-2-yl)methoxy)-4-methoxy-3-phosphonobutanoic acid] the value was at least 9.30; for `O=P(O)(O)[C@@](CO)(COCc1nn[nH]n1)OC[C@H]1O[C@@H](c2ccc3c(NCC4CCCC4)nc(Cl)nn23)[C@H](O)[C@@H]1O` [Example 46, ((S)-1-((2H-tetrazol-5-yl)methoxy)-2-(((2R,3S,4R,5S)-5-(2-chloro-4-((cyclopentylmethyl)amino)pyrrolo[2,1-f][1,2,4]triazin-7-yl)-3,4-dihydroxytetrahydrofuran-2-yl)methoxy)-3-hydroxypropan-2-yl)phosphonic acid], at least 9.30.

Turning to `COC[C@](OC[C@H]1O[C@@H](c2ccc3c(NC4CCCC4)nc(Cl)nn23)[C@H](O)[C@@H]1O)(C(=O)O)P(=O)(O)O` [Example 47, (R)-2-(((2R,3S,4R,5S)-5-(2-chloro-4-(cyclopentylamino)pyrrolo[2,1-f][1,2,4]triazin-7-yl)-3,4-dihydroxytetrahydrofuran-2-yl)methoxy)-3-methoxy-2-phosphonopropanoic acid], the pIC50 was 7.00 to 9.00.

As to `O=P(O)(O)[C@](CO)(COCc1nn[nH]n1)OC[C@H]1O[C@@H](c2ccc3c(NCC4CCCC4)nc(Cl)nn23)[C@H](O)[C@@H]1O` [Example 48, ((R)-1-((2H-tetrazol-5-yl)methoxy)-2-(((2R,3S,4R,5S)-5-(2-chloro-4-((cyclopentylmethyl)amino)pyrrolo[2,1-f][1,2,4]triazin-7-yl)-3,4-dihydroxytetrahydrofuran-2-yl)methoxy)-3-hydroxypropan-2-yl)phosphonic acid], the pIC50 was 7.00 to 9.00. For `O=P(O)(O)[C@@](CO)(COCc1nn[nH]n1)OC[C@H]1O[C@@H](c2ccc3c(NCC4CC4)nc(Cl)nn23)[C@H](O)[C@@H]1O` [Example 49, ((S)-1-((2H-tetrazol-5-yl)methoxy)-2-(((2R,3S,4R,5S)-5-(2-chloro-4-((cyclopropylmethyl)amino)pyrrolo[2,1-f][1,2,4]triazin-7-yl)-3,4-dihydroxytetrahydrofuran-2-yl)methoxy)-3-hydroxypropan-2-yl)phosphonic acid] the value was at least 9.30; for `O=P(O)(O)[C@](CO)(COCc1nn[nH]n1)OC[C@H]1O[C@@H](c2ccc3c(NC4CCC4)nc(Cl)nn23)[C@H](O)[C@@H]1O` [Example 50, ((R)-1-((2H-tetrazol-5-yl)methoxy)-2-(((2R,3S,4R,5S)-5-(2-chloro-4-(cyclobutylamino)pyrrolo[2,1-f][1,2,4]triazin-7-yl)-3,4-dihydroxytetrahydrofuran-2-yl)methoxy)-3-hydroxypropan-2-yl)phosphonic acid], 9.00 to 9.30.
